{
  "source": "patent US9789116B2",
  "about": "“Compositions and methods of modulating short-chain dehydrogenase activity” (CASE WESTERN RESERVE UNIVERSITY, priority 2013, dated 2017)",
  "key": {"A549 cells [1]": {"test_system": "A549 cells", "assay": "PGE2 levels in medium of IL1-beta stimulated A549 cells", "assay_type": "cell-based", "conditions": "IL1-beta 23 hours, compound added for the last 5 hours"}, "A549 cells [2]": {"test_system": "A549 cells", "assay": "Cellular toxicity on A549 cells by CellTiter-Glo", "assay_type": "cell-based", "conditions": "24 hours, concentrations of up to 10 μM", "experimental": "FIGS. 38(A-C) show assays of cellular toxicity on A549 cells at 24 hours of 15-PGDH inhibitors as assayed by CellTiter-Glo measurement."}, "cell culture": {"test_system": "cell culture", "assay": "Toxicity in a cell culture assay (decrease of cell numbers)", "assay_type": "cell-based", "conditions": "concentration needed to decrease cell numbers in a cell culture assay", "experimental": "Time to inhibition refers to the time needed to inhibit the generation of NADH by 15-PGDH from the moment with drug is added into the reaction mix. Delta Tm refers to the shift in melting temperature of recombinant 15-PGDH in the presence of drug (with cofactor NADH also present). Concentration of Full Cell Line Reporter Induction refers to the concentration of drug that needs to be added to reporter cell line to achieve maximal induction of the 15-PGDH-luciferase gene fusion reporter cassette, as measured by luciferase assays. Hepatocyte stability refers to the half-life of compound in the presence of hepatocytes in culture. Toxicity refers to the concentration of compound needed to decrease cell numbers in a cell culture assay."}, "15-PGDH mRNA": {"test_system": "15-PGDH mRNA", "assay": "15-PGDH mRNA levels in colon cancer cell lines by real-time PCR", "assay_type": "cell-based", "from_the_text": "In these studies parental cell lines (not containing the 15-PGDH-luciferase reporter) are employed."}, "lethally irradiated mice [3]": {"test_system": "lethally irradiated mice", "assay": "Homing of CFSE dye labeled bone marrow cells in lethally irradiated mice", "assay_type": "in vivo, mouse", "conditions": "10 mg/kg IP", "experimental": "Drugs are administered following radiation, following the transplant, and again at 8 hours after the transplant."}, "FVB mice": {"test_system": "FVB mice", "assay": "Toxicity study in FVB mice, daily weights", "assay_type": "in vivo, mouse", "conditions": "5 mg/kg IP twice daily for 21 days, N=6"}, "lethally irradiated mice [4]": {"test_system": "lethally irradiated mice", "assay": "Blood and bone marrow recovery after transplant with 500,000 donor marrow cells", "assay_type": "in vivo, mouse"}, "C57BL/6J female mice": {"test_system": "C57BL/6J female mice", "assay": "Survival following acetaminophen (Tylenol) overdose;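 note: control animals received vehicle only, given on a once or twice daily schedule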", "assay_type": "in vivo, mouse"}, "[5]": {"test_system": "15-PGDH-luciferase fusion reporter in V9m, LS174T and V503 cells", "assay": "15-PGDH-luciferase fusion gene reporter induction in colon cancer cell lines", "assay_type": "cell-based"}, "[6]": {"test_system": "bone marrow SKL cells and stromal cells", "assay": "Gene expression in bone marrow SKL and CD45(-) stromal cells of treated mice", "assay_type": "in vivo, mouse", "experimental": "2 hours following the last dose bone marrow is harvested and sorted into SKL marked cells that are hematopoietic stem cell enriched and into CD45 (−) cells that are bone marrow stroma cells. RNA was extracted and gene expression determined relative to levels in mice injected with vehicle control."}},
  "note": "“Also recorded” adds a separate entry of the source.",
  "data": [
    {"smiles": "CCCC[S+]([O-])c1sc2nc(-c3cccs3)cc(-c3ccccc3)c2c1N", "note": "(stereo not drawn) [SW033291, 2-(butylsulfinyl)-4-phenyl-6-(thiophen-2-yl)thieno[2,3-b]pyridin-3-amine]", "values": [
      {"measurement": "15-PGDH activity in cells as reflected in PGE2 levels in medium", "setting": "A549 cells [1]", "value": "clear inhibition of 15-PGDH activity in the cells"},
      {"measurement": "effect on CellTitre-Glo levels", "setting": "A549 cells [2]", "value": "No effect"},
      {"measurement": "Toxicity", "setting": "cell culture", "value": ">10", "unit": "µM"},
      {"measurement": "15-PGDH mRNA levels", "setting": "15-PGDH mRNA; V503 cells", "value": "slight increase in 15-PGDH mRNA"},
      {"measurement": "15-PGDH mRNA levels", "setting": "15-PGDH mRNA; treated colon cancer cell lines, real-time PCR", "value": "do not in general alter 15-PGDH mRNA levels"},
      {"measurement": "increase in numbers of homed cells in recipient bone marrow", "setting": "lethally irradiated mice [3]; FIG. 88", "value": 3, "unit": "fold"},
      {"measurement": "increase in numbers of homed cells in recipient bone marrow", "setting": "lethally irradiated mice [3]; FIG. 90", "value": 2, "unit": "fold"},
      {"measurement": "increase in numbers of homed donor cells in recipient bone marrow", "setting": "lethally irradiated mice [3]; FIG. 140", "value": "approximately 2.5 fold"},
      {"measurement": "mouse weight gain", "setting": "FVB mice", "value": "no evidence for SW033291 reducing mouse weight"},
      {"measurement": "total platelet count", "setting": "lethally irradiated mice [4]; day 5 after transplant", "value": "significantly higher total platelet count"},
      {"measurement": "total white count", "setting": "lethally irradiated mice [4]; day 5 after transplant", "value": "significantly higher total white count"},
      {"measurement": "platelet count", "setting": "lethally irradiated mice [4]; day 8 after transplant", "value": "77,000 platelets"},
      {"measurement": "neutrophil count", "setting": "lethally irradiated mice [4]; day 12 after transplant", "value": 332, "unit": "neutrophils"},
      {"measurement": "total white counts", "setting": "lethally irradiated mice [4]; day 12 after transplant", "value": "significantly higher total white counts; also recorded: significantly greater total white counts"},
      {"measurement": "lymphocyte count", "setting": "lethally irradiated mice [4]; day 18 after transplant", "value": "significantly higher"},
      {"measurement": "neutrophil count", "setting": "lethally irradiated mice [4]; day 18 after transplant", "value": 835, "unit": "neutrophils"},
      {"measurement": "platelet counts", "setting": "lethally irradiated mice [4]; day 18 after transplant", "value": "significantly higher platelet counts"},
      {"measurement": "total white count", "setting": "lethally irradiated mice [4]; day 18 after transplant", "value": "significantly higher total white count"},
      {"measurement": "Number of mice surviving", "setting": "C57BL/6J female mice; 5 mg/kg 1 dose/daily, first dose immediately after Tylenol, 16 hr, cohort of 6", "value": 6},
      {"measurement": "Number of mice surviving", "setting": "C57BL/6J female mice; 5 mg/kg 1 dose/daily, first dose immediately after Tylenol, 24 hrs, cohort of 6", "value": 6},
      {"measurement": "Number of mice surviving", "setting": "C57BL/6J female mice; 5 mg/kg 2 dose/daily, first dose immediately after Tylenol, 16 hr, cohort of 6", "value": 6},
      {"measurement": "Number of mice surviving", "setting": "C57BL/6J female mice; 5 mg/kg 2 dose/daily, first dose immediately after Tylenol, 24 hrs, cohort of 6", "value": 6},
      {"measurement": "Number of mice surviving", "setting": "C57BL/6J female mice; 5 mg/kg 2 dose/daily, first dose immediately after Tylenol, 48 hrs, cohort of 6", "value": 3},
      {"measurement": "Number of mice surviving", "setting": "C57BL/6J female mice; 5 mg/kg 2 dose/daily, first dose immediately after Tylenol, 64 hrs, cohort of 6", "value": 3},
      {"measurement": "Number of mice surviving", "setting": "C57BL/6J female mice; 5 mg/kg 2 dose/daily, first dose immediately after Tylenol, 72 hrs, cohort of 6", "value": 3},
      {"measurement": "Number of mice surviving", "setting": "C57BL/6J female mice; 5 mg/kg 2 dose/daily, first dose immediately after Tylenol, 88 hr, cohort of 6", "value": 3},
      {"measurement": "Number of mice surviving", "setting": "C57BL/6J female mice; 5 mg/kg 2 dose/daily, first dose immediately after Tylenol, 96 hr, cohort of 6", "value": 3},
      {"measurement": "Number of mice surviving", "setting": "C57BL/6J female mice; 5 mg/kg 2 dose/daily, first dose immediately after Tylenol, 112 hr, cohort of 6", "value": 3},
      {"measurement": "Number of mice surviving", "setting": "C57BL/6J female mice; 5 mg/kg 2 dose/daily, first dose immediately after Tylenol, 120 hr, cohort of 6", "value": 3},
      {"measurement": "survival versus control mice", "setting": "C57BL/6J female mice; 5 mg/kg IP begun immediately following acetaminophen, once or twice daily, through 120 hours", "value": "No difference"},
      {"measurement": "protection from acetaminophen lethality", "setting": "C57BL/6J female mice; 5 mg/kg IP bid beginning 48 hours prior to acetaminophen, 9 doses", "value": "protects from the lethal hepatotoxicity of acetaminophen"},
      {"measurement": "Number of mice surviving", "setting": "C57BL/6J female mice; 5 mg/kg bid from 3 hours prior to acetaminophen, 6 doses, 16 hr, cohort of 6", "value": 6},
      {"measurement": "Number of mice surviving", "setting": "C57BL/6J female mice; 5 mg/kg bid from 3 hours prior to acetaminophen, 6 doses, 24 hrs, cohort of 6", "value": 5},
      {"measurement": "Number of mice surviving", "setting": "C57BL/6J female mice; 5 mg/kg bid from 3 hours prior to acetaminophen, 6 doses, 48 hrs, cohort of 6", "value": 3},
      {"measurement": "Number of mice surviving", "setting": "C57BL/6J female mice; 5 mg/kg bid from 3 hours prior to acetaminophen, 6 doses, 64 hrs, cohort of 6", "value": 3},
      {"measurement": "Number of mice surviving", "setting": "C57BL/6J female mice; 5 mg/kg bid from 3 hours prior to acetaminophen, 6 doses, 72 hrs, cohort of 6", "value": 3},
      {"measurement": "Number of mice surviving", "setting": "C57BL/6J female mice; 5 mg/kg bid from 3 hours prior to acetaminophen, 6 doses, 88 hr, cohort of 6", "value": 3},
      {"measurement": "Number of mice surviving", "setting": "C57BL/6J female mice; 5 mg/kg bid from 3 hours prior to acetaminophen, 6 doses, 96 hr, cohort of 6", "value": 3},
      {"measurement": "Number of mice surviving", "setting": "C57BL/6J female mice; 5 mg/kg bid from 3 hours prior to acetaminophen, 6 doses, 112 hr, cohort of 6", "value": 3},
      {"measurement": "Number of mice surviving", "setting": "C57BL/6J female mice; 5 mg/kg bid from 3 hours prior to acetaminophen, 6 doses, 120 hr, cohort of 6", "value": 3},
      {"measurement": "Number of mice surviving", "setting": "C57BL/6J female mice; 5 mg/kg bid from 48 hours prior to acetaminophen, 9 doses, 16 hr, cohort of 12", "value": 12},
      {"measurement": "Number of mice surviving", "setting": "C57BL/6J female mice; 5 mg/kg bid from 48 hours prior to acetaminophen, 9 doses, 24 hrs, cohort of 12", "value": 12},
      {"measurement": "Number of mice surviving", "setting": "C57BL/6J female mice; 5 mg/kg bid from 48 hours prior to acetaminophen, 9 doses, 40 hrs, cohort of 12", "value": 11},
      {"measurement": "Number of mice surviving", "setting": "C57BL/6J female mice; 5 mg/kg bid from 48 hours prior to acetaminophen, 9 doses, 48 hrs, cohort of 12", "value": 10},
      {"measurement": "Number of mice surviving", "setting": "C57BL/6J female mice; 5 mg/kg bid from 48 hours prior to acetaminophen, 9 doses, 64 hrs, cohort of 12", "value": 10},
      {"measurement": "Number of mice surviving", "setting": "C57BL/6J female mice; 5 mg/kg bid from 48 hours prior to acetaminophen, 9 doses, 72 hrs, cohort of 12", "value": 10},
      {"measurement": "Number of mice surviving", "setting": "C57BL/6J female mice; 5 mg/kg bid from 48 hours prior to acetaminophen, 9 doses, 88 hr, cohort of 12", "value": 10},
      {"measurement": "Number of mice surviving", "setting": "C57BL/6J female mice; 5 mg/kg bid from 48 hours prior to acetaminophen, 9 doses, 96 hr, cohort of 12", "value": 10},
      {"measurement": "Number of mice surviving", "setting": "C57BL/6J female mice; 5 mg/kg bid from 48 hours prior to acetaminophen, 9 doses, 112 hr, cohort of 12", "value": 10},
      {"measurement": "Number of mice surviving", "setting": "C57BL/6J female mice; 5 mg/kg bid from 48 hours prior to acetaminophen, 9 doses, 120 hr, cohort of 12", "value": 10},
      {"measurement": "exposure needed for maximal reporter induction", "setting": "[5]; 24 hours, three cell line backgrounds", "value": "80 to 160", "unit": "nM"},
      {"measurement": "luciferase activity of 15-PGDH luciferase fusion cells", "setting": "[5]; V9m, LS174T, V503, various concentrations", "value": "increase luciferase activity"},
      {"measurement": "induction of CXCL12", "setting": "[6]", "value": "greater than 4 fold"},
      {"measurement": "induction of SCF", "setting": "[6]", "value": "greater than 4 fold"}
    ]}
  ]
}
